According to patent US20110262556A1, “SILVER/WATER, SILVER GELS AND SILVER-BASED COMPOSITIONS; AND METHODS FOR MAKING AND USING THE SAME” (AMERICAN SILVER, LLC, priority 2005, published 2011):
Values after ≈ are worked out from the molar mass of the structure shown. Like-named read-outs stand apart in the source and are kept apart here.

Assays:
E. coil = assay: Zone of inhibition, agar well; details: E.coli; antibiotic amount (5-200 mcg)
MRSA 1 = assay: Zone of inhibition, agar well; details: antibiotic amount (1-200 mcg)
S.typhi = assay: Zone of inhibition, agar well; details: antibiotic amount (5-200 mcg)
S. aureus ATCC 6538 P = assay: Zone of inhibition, agar well; details: antibiotic amount (1-200 mcg)
MRSA 2 = assay: Zone of inhibition, agar well; details: antibiotic amount (1-200 mcg)
Ps. Aeruginosa = assay: Zone of inhibition, agar well; details: antibiotic amount (5-200 mcg)
S. pneumoniae = assay: MIC/MBC broth microdilution; assay type: cell-based; details: Streptococcus pneumoniae; for MBC: read-out: MBC; for MIC: read-out: MIC
E. coli = assay: MIC/MBC broth microdilution; assay type: cell-based, Escherichia coli; details: Escherichia coli; for MBC: read-out: MBC; for MIC: read-out: MIC
S. faecalis = assay: MIC/MBC broth microdilution; assay type: cell-based, Streptococcus faecalis; details: Enterococcus faecalis; for MBC: read-out: MBC; for MIC: read-out: MIC
S arizona = assay: MIC/MBC broth microdilution; assay type: cell-based, Salmonella arizona; details: Salmonella; for MBC: read-out: MBC; for MIC: read-out: MIC
P. aeruginosa = assay: MIC/MBC broth microdilution; assay type: cell-based, Pseudomonas aeruginosa; details: Pseudomonas aeruginosa; for MBC: read-out: MBC; for MIC: read-out: MIC
K. oxytoca = assay: MIC/MBC broth microdilution; assay type: cell-based; details: Klebsiella oxytoca; K. oxytoca; read-out: MIC
S. pyogenes = assay: MIC/MBC broth microdilution; assay type: cell-based, Streptococcus pyogenes; details: Streptococcus pyogenes; for MBC: read-out: MBC; for MIC: read-out: MIC
S. mutans = assay: MIC/MBC broth microdilution; assay type: cell-based, Streptococcus mutans; details: Streptococcus mutans; for MBC: read-out: MBC; for MIC: read-out: MIC
S gordonii = assay: MIC/MBC broth microdilution; assay type: cell-based, Streptococcus gordonii; details: Streptococcus gordonii; for MBC: read-out: MBC; for MIC: read-out: MIC
E. aerogenes = assay: MIC/MBC broth microdilution; assay type: cell-based, Enterobacter aerogenes; details: Klebsiella aerogenes
S. boydii = assay: MIC/MBC broth microdilution; assay type: cell-based, Shigella boydii; details: Shigella boydii, S. boydii; for MBC: read-out: MBC; for MIC: read-out: MIC
E. cloacae = assay: MIC/MBC broth microdilution; assay type: cell-based; details: Enterobacter cloacae; for MIC: read-out: MIC
S. aureus = assay: MIC/MBC broth microdilution; assay type: cell-based, Staphylococcus aureus; details: Staphylococcus aureus; for MBC: read-out: MBC; for MIC: read-out: MIC
K. pneumoniae = assay: MIC/MBC broth microdilution; assay type: cell-based, Klebsiella pneumoniae; details: Klebsiella pneumoniae; for MIC: read-out: MIC
S. typhimurium = assay: MIC/MBC broth microdilution; assay type: cell-based; details: Salmonella enterica, S. typhimurium; for MBC: read-out: MBC; for MIC: read-out: MIC
[1] = test system: Pseudomonas aeruginosa MDR clinical isolate (sputum); assay: Antibiotic sensitivity, Kirby Bauer; details: gram-negative isolate Pseudomonas
[2] = test system: Escherichia coli MDR clinical isolate (stool); assay: Antibiotic sensitivity, Kirby Bauer; details: gram-negative isolate E. coli

With `CCn1cc(C(=O)O)c(=O)c2cc(F)c(N3CCN(C)CC3)cc21` [Peflofloxacin] the “zone of inhibition, antibiotics” value (E. coil) was “Clear”, the “zone of inhibition, antibiotics” value (MRSA 1) was 11 mm and the “zone of inhibition, antibiotics” value (S.typhi) was “clear”. The “zone of inhibition, antibiotics” value (S. aureus ATCC 6538 P) was 30 mm and the “zone of inhibition, antibiotics” value (MRSA 2) was 13 mm.
In the case of `CO/N=C(\C(=O)N[C@@H]1C(=O)N2C(C(=O)O)=CCS[C@H]12)c1csc(N)n1` [Ceftizoxime], the “zone of inhibition, antibiotics” value (E. coil) is reported as 18 mm, the “zone of inhibition, antibiotics” value (S.typhi) is reported as 15 mm and the “zone of inhibition, antibiotics” value (Ps. Aeruginosa) is reported as “No inhibition”.
With `CC[C@H]1OC(=O)[C@H](C)[C@@H](O[C@H]2C[C@@](C)(OC)[C@@H](O)[C@H](C)O2)[C@H](C)[C@@H](O[C@@H]2O[C@H](C)C[C@H](N(C)C)[C@H]2O)[C@](C)(O)C[C@@H](C)C(=O)[C@H](C)[C@@H](O)[C@]1(C)O` [Erythromycin] the MBC (S. pneumoniae) was 0.004 µg/mL (≈ 0.00545 µM), the MIC (S. pneumoniae) was 0.002 µg/mL (≈ 0.00273 µM) and the MBC (E. coli) was > 5 µg/mL. The MIC (E. coli) was 5 µg/mL (≈ 6.81 µM), the MBC (S. faecalis) was 1.25 µg/mL (≈ 1.7 µM) and the MIC (S. faecalis) was 0.009 µg/mL (≈ 0.0123 µM). The MBC (S arizona) was > 5 µg/mL, the MIC (S arizona) was 4.17 µg/mL (≈ 5.68 µM) and the MBC (P. aeruginosa) was > 5 µg/mL. For the same molecule, the MIC (P. aeruginosa) was 2.5 µg/mL (≈ 3.41 µM), the MIC (K. oxytoca) was > 5 µg/mL and the MBC (S. pyogenes) was 0.019 µg/mL (≈ 0.0259 µM). It also gave an MIC (S. pyogenes) of 0.003 µg/mL (≈ 0.00409 µM), an MBC (S. mutans) of 0.019 µg/mL (≈ 0.0259 µM) and an MIC (S. mutans) of 0.009 µg/mL (≈ 0.0123 µM). For the same molecule, the MBC (S gordonii) was 0.019 µg/mL (≈ 0.0259 µM), the MIC (S gordonii) was 0.005 µg/mL (≈ 0.00681 µM) and the MIC (E. aerogenes; E. aerogenes, read-out: MIC) was > 5 µg/mL. For the same molecule, the MBC (S. boydii) was > 5 µg/mL, the MIC (S. boydii) was 5 µg/mL (≈ 6.81 µM) and the MIC (E. cloacae) was > 5 µg/mL. The MBC (S. aureus) was > 5 µg/mL, the MIC (S. aureus) was 0.039 µg/mL (≈ 0.0531 µM) and the MIC (K. pneumoniae) was > 5 µg/mL. The MBC (S. typhimurium) was > 5 µg/mL and the MIC (S. typhimurium) was 5 µg/mL (≈ 6.81 µM).
In the case of `Cc1onc(-c2ccccc2Cl)c1C(=O)N[C@@H]1C(=O)N2[C@@H]1SC(C)(C)[C@@H]2C(=O)O` [Cloxacillin], the “zone of inhibition, antibiotics” value (MRSA 1) is reported as “Clear”, the “zone of inhibition, antibiotics” value (S. aureus ATCC 6538 P) is reported as “Clear” and the “zone of inhibition, antibiotics” value (MRSA 2) is reported as 13 mm.
With `CC1COc2c(N3CCN(C)CC3)c(F)cc3c(=O)c(C(=O)O)cn1c23` (centres unmarked) [Ofloxacin] the “zone of inhibition, antibiotics” value (MRSA 1) was 15 mm, the MBC (S. pneumoniae) was 2.5 µg/mL (≈ 6.92 µM) and the MIC (S. pneumoniae) was 2.5 µg/mL (≈ 6.92 µM). For the same molecule, the MBC (E. coli) was 0.156 µg/mL (≈ 0.432 µM), the MIC (E. coli) was 0.104 µg/mL (≈ 0.288 µM) and the MBC (S. faecalis) was 5 µg/mL (≈ 13.8 µM). For the same molecule, the MIC (S. faecalis) was 1.25 µg/mL (≈ 3.46 µM), the MBC (S arizona) was 0.078 µg/mL (≈ 0.216 µM) and the MIC (S arizona) was 0.078 µg/mL (≈ 0.216 µM). It also gave an MBC (P. aeruginosa) of 0.313 µg/mL (≈ 0.866 µM), an MIC (P. aeruginosa) of 0.156 µg/mL (≈ 0.432 µM) and an MBC (S. pyogenes) of 2.5 µg/mL (≈ 6.92 µM). For the same molecule, the MIC (S. pyogenes) was 1.25 µg/mL (≈ 3.46 µM), the MBC (S. mutans) was > 5 µg/mL and the MIC (S. mutans) was 2.5 µg/mL (≈ 6.92 µM). It also gave an MBC (S gordonii) of 5 µg/mL (≈ 13.8 µM), an MIC (S gordonii) of 2.5 µg/mL (≈ 6.92 µM) and an MBC (E. aerogenes) of 0.156 µg/mL (≈ 0.432 µM). It also gave an MIC (E. aerogenes) of 0.078 µg/mL (≈ 0.216 µM), an MBC (S. boydii) of 0.156 µg/mL (≈ 0.432 µM) and an MIC (S. boydii) of 0.078 µg/mL (≈ 0.216 µM). For the same molecule, the “zone of inhibition, antibiotics” value (MRSA 2) was 16 mm, the MBC (E. cloacae) was 0.156 µg/mL (≈ 0.432 µM) and the MIC (E. cloacae) was 0.156 µg/mL (≈ 0.432 µM). For the same molecule, the MBC (S. aureus) was 0.625 µg/mL (≈ 1.73 µM), the MIC (S. aureus) was 0.417 µg/mL (≈ 1.15 µM) and the MBC (K. pneumoniae) was 0.625 µg/mL (≈ 1.73 µM). For the same molecule, the MIC (K. pneumoniae) was 0.417 µg/mL (≈ 1.15 µM), the MBC (S. typhimurium) was 0.156 µg/mL (≈ 0.432 µM) and the MIC (S. typhimurium) was 0.078 µg/mL (≈ 0.216 µM).
With `CCn1cc(C(=O)O)c(=O)c2ccc(C)nc21` [nalidixic acid] the resistance of isolate [1] was “resistance” and the resistance of isolate [2] was “resistance”.
`O=C(O)c1cn(C2CC2)c2cc(N3CCNCC3)c(F)cc2c1=O` [Ciprofloxacin] was tested, and the “zone of inhibition, antibiotics” value (E. coil) was 29 mm, the “zone of inhibition, antibiotics” value (MRSA 1) was 14 mm and the “zone of inhibition, antibiotics” value (S.typhi) was 25 mm. The “zone of inhibition, antibiotics” value (S. aureus ATCC 6538 P) was 28 mm and the “zone of inhibition, antibiotics” value (MRSA 2) was 14 mm.
`O=C(N[C@H](CO)[C@H](O)c1ccc([N+](=O)[O-])cc1)C(Cl)Cl` [Chloramphenicol] was tested, and the “zone of inhibition, antibiotics” value (E. coil) was 22 mm, the “zone of inhibition, antibiotics” value (S.typhi) was 23 mm and the “zone of inhibition, antibiotics” value (Ps. Aeruginosa) was “No inhibition”.
For `CCC[C@@H]1C[C@@H](C(=O)N[C@@H]([C@H]2O[C@H](SC)[C@H](O)[C@@H](O)[C@H]2O)[C@@H](C)O)N(C)C1` [Lincomycin], the “zone of inhibition, antibiotics” value (MRSA 1) was “Clear”, the “zone of inhibition, antibiotics” value (S. aureus ATCC 6538 P) was 1Clear and the “zone of inhibition, antibiotics” value (MRSA 2) was “Clear”.
